In EP4759807A1, “PROTEOLYSIS TARGETING CHIMERA COMPOUND FOR DEGRADING IRAK4 AND USE THEREOF” (Shenzhen Zhongge Biological Technology Co., Ltd., priority 2023, dated 2025):
Read-outs that look alike come from different tables or passages of the source.

Biological target: T1, IRAK4 (Homo sapiens, UniProt Q9NWZ3)
T1 sequence (Q9NWZ3 1-460): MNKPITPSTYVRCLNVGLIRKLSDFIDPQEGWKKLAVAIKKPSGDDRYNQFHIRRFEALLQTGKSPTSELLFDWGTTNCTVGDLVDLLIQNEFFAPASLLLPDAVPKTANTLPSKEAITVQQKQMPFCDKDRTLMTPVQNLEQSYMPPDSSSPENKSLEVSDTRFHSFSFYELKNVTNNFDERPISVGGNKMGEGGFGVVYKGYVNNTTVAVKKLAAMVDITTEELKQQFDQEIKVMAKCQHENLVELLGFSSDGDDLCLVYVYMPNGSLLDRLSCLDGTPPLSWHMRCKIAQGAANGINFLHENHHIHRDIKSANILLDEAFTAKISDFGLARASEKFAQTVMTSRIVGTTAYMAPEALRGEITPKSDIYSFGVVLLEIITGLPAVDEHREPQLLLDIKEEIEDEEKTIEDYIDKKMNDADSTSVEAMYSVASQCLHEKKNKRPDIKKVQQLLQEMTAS
Assay: Hibit fluorescence detection of proteolysis (IRAK4-HiBiT in HEK293T cells)
Type: cell-based
Parameters: host or cells: HEK293T (ATCC)
Conditions: for Dmax: HEK-293T
How it was run: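 Degradation read-out: luminescence from lytic HiBiT detection (15 min, room temperature) after 24 h compound exposure (37 °C, 5% CO2) of HEK293T cells transiently expressing IRAK4 fused to a HiBiT tag. Data fitted to a bell-shaped four-parameter model giving two EC50 values.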

[1] = IRAK4-HiBiT, HEK293T cells, 24 h

SMILES	Dmax [%]	DC50 [1] [nM]	Dmax (IRAK4-HiBiT, HEK293T cells, 24 h, read-out: Dmax) [%]	DC50 (IRAK4-HiBiT, HEK293T cells, 24 h, read-out: DC50) [nM]
C[C@@H]1CN(C[C@H]2CC[C@H](n3cc(-n4cc(-c5ccc6cc(C(N)=O)cnn56)nn4)c(C(F)F)n3)CC2)CCN1c1cccc2c1n(C)c(=O)n2C1CCC(=O)NC1=O (stereo partly drawn) [Example 51, 7-(1-(3-(difluoromethyl)-1-((1R,4r)-4-(((3R)-4-(1-(2,6-dioxopiperidin-3-yl)-3-methyl-2-oxo-2,3-dihydro-1H-benzo[d]imidazol-4-yl)-3-methylpiperazin-1-yl)methyl)cyclohexyl)-1H-pyrazol-4-yl)-1H-1,2,3-triazol-4-yl)pyrrolo[1,2-b]pyridazine-3-carboxamide]	> 80	< 0.5		
C[C@H]1CN(c2cccc3c2n(C)c(=O)n3C2CCC(=O)NC2=O)CCN1C[C@H]1CC[C@H](n2cc(-n3cc(-c4cnn5ccc(N6CCOCC6)nc45)nn3)c(C(F)F)n2)CC1 (stereo partly drawn) [Example 52]	70 to 80	0.5 to 1		
Cn1c(=O)n(C2CCC(=O)NC2=O)c2cccc(N3CCC4(CCCN(C[C@H]5CC[C@H](n6cc(-n7cc(-c8cnn9ccc(N%10CCOCC%10)nc89)nn7)c(C(F)F)n6)CC5)C4)CC3)c21 (stereo partly drawn) [Example 53, 3-(4-(2-(((1r,4r)-4-(3-(difluoromethyl)-4-(4-(5-morpholinopyrazolo[1,5-a]pyrimidin-3-yl)-1H-1,2,3-triazol-1-yl)-1H-pyrazol-1-yl)cyclohexyl)methyl)-2,9-diazaspiro[5.5]undecan-9-yl)-3-methyl-2-oxo-2,3-dihydro-1H-benzo[d]imidazol-1-yl)piperidine-2,6-dione]	70 to 80	0.5 to 1		
Cn1c(=O)n(C2CCC(=O)NC2=O)c2cccc(N3CCN(C[C@H]4CC[C@H](n5cc(-n6cc(-c7ccc8cc(C(N)=O)cnn78)nn6)c(C(F)F)n5)CC4)CC3)c21 (stereo partly drawn) [Example 57]	70 to 80	< 0.5		
Cn1c(=O)n(C2CCC(=O)NC2=O)c2cccc(N3CC(N4CCN(C[C@H]5CC[C@H](n6cc(-n7cc(-c8ccc9cc(C(N)=O)cnn89)nn7)c(C(F)F)n6)CC5)CC4)C3)c21 (stereo partly drawn) [Example 63, 7-(1-(3-(difluoromethyl)-1-((1r,4r)-4-((4-(1-(1-(2,6-dioxopiperidin-3-yl)-3-methyl-2-oxo-2,3-dihydro-1H-benzo[d]imidazol-4-yl)azetidin-3-yl)piperazin-1-yl)methyl)cyclohexyl)-1H-pyrazol-4-yl)-1H-1,2,3-triazol-4-yl)pyrrolo[1,2-b]pyridazine-3-carboxamide]	60 to 70	< 0.5		
Cn1c(=O)n(C2CCC(=O)NC2=O)c2cccc(C#CCOC3CCN(C[C@H]4CC[C@H](n5cc(-n6cc(-c7ccc8cc(C(N)=O)cnn78)nn6)c(C(F)F)n5)CC4)CC3)c21 (stereo partly drawn) [Example 65]	60 to 70	< 0.5		
Cn1c(=O)n(C2CCC(=O)NC2=O)c2cccc(NC3CCN(C[C@H]4CC[C@H](n5cc(-n6cc(-c7ccc8cc(C(N)=O)cnn78)nn6)c(C(F)F)n5)CC4)CC3)c21 (stereo partly drawn) [Example 66, 7-(1-(3-(difluoromethyl)-1-((1r,4r)-4-((4-((1-(2,6-dioxopiperidin-3-yl)-3-methyl-2-oxo-2,3-dihydro-1H-benzo[d]imidazol-4-yl)amino)piperidin-1-yl)methyl)cyclohexyl)-1H-pyrazol-4-yl)-1H-1,2,3-triazol-4-yl)pyrrolo[1,2-b]pyridazine-3-carboxamide]	70 to 80	< 0.5		
Cn1c(=O)n(C2CCC(=O)NC2=O)c2cccc(N3CCN(C4CN(C[C@H]5CC[C@H](n6cc(-n7cc(-c8ccc9cc(C(N)=O)cnn89)nn7)c(C(F)F)n6)CC5)C4)CC3)c21 (stereo partly drawn) [Example 67]	> 80	< 0.5		
Cn1c(=O)n(C2CCC(=O)NC2=O)c2cccc(CN3CCN(C[C@H]4CC[C@H](n5cc(-n6cc(-c7ccc8cc(C(N)=O)cnn78)nn6)c(C(F)F)n5)CC4)CC3)c21 (stereo partly drawn) [Example 68]	> 80	< 0.5		
Cn1c(=O)n(C2CCC(=O)NC2=O)c2cccc(NC(=O)C3CCN(C[C@H]4CC[C@H](n5cc(-n6cc(-c7ccc8cc(C(N)=O)cnn78)nn6)c(C(F)F)n5)CC4)CC3)c21 (stereo partly drawn) [Example 69, 7-(1-(3-(difluoromethyl)-1-((1r,4r)-4-((4-((1-(2,6-dioxopiperidin-3-yl)-3-methyl-2-oxo-2,3-dihydro-1H-benzo[d]imidazol-4-yl)carbamoyl)piperidin-1-yl)methyl)cyclohexyl)-1H-pyrazol-4-yl)-1H-1,2,3-triazol-4-yl)pyrrolo[1,2-b]pyridazine-3-carboxamide]	> 80	> 5		
NC(=O)c1cnn2c(-c3cn(-c4cn([C@H]5CC[C@H](CN6CCN(c7ccc8c(c7)C(=O)N(C7CCC(=O)NC7=O)C8=O)CC6)CC5)nc4C(F)F)nn3)ccc2c1 (stereo partly drawn) [Example 70, 7-(1-(3-(difluoromethyl)-1-((1r,4r)-4-(4-(2-(2,6-dioxopiperidin-3-yl)-1,3-dioxoisoindolin-5-yl)piperazin-1-yl)methyl)cyclohexyl-1H-pyrazol-4-yl)-1H-1,2,3-triazol-4-yl)pyrrolo[1,2-b]pyridazine-3-carboxamide]	70 to 80	1 to 5		
Cn1c(=O)n(C2CCC(=O)NC2=O)c2cccc(N3CCN(C4CCN(C[C@H]5CC[C@H](n6cc(-n7cc(-c8ccc9cc(C(N)=O)cnn89)nn7)c(C(F)F)n6)CC5)CC4)CC3)c21 (stereo partly drawn) [Example 71]	> 80	< 0.5		
NC(=O)c1cnn2c(-c3cn(-c4cn([C@H]5CC[C@H](CN6CCN(c7ccc8c(c7)CN(C7CCC(=O)NC7=O)C8=O)CC6)CC5)nc4C(F)F)nn3)ccc2c1 (stereo partly drawn) [Example 72, 7-(1-(3-(difluoromethyl)-1-((1r,4r)-4-((4-(2-(2,6-dioxopiperidin-3-yl)-1-oxoisoindolin-5-yl)piperazin-1-yl)methyl)cyclohexyl)-1H-pyrazol-4-yl)-1H-1,2,3-triazol-4yl)pyrrolo[1,2-b]pyridazine-3-carboxamide]	60 to 70	< 0.5		
Cn1c(=O)n(C2CCC(=O)NC2=O)c2cccc(N3CC(CN4CCC(n5cc(-n6cc(-c7ccc8cc(C(N)=O)cnn78)nn6)c(C(F)F)n5)CC4)C3)c21 (stereo not drawn) [Example 73, 7-(1-(3-(difluoromethyl)-1-(1-((1-(1-(2,6-dioxopiperidin-3-yl)-3-methyl-2-oxo-2,3-dihydro-1H-benzo[d]imidazol-4-yl)azetidin-3-yl)methyl)piperidin-4-yl)-1H-pyrazol-4-yl)-1H-1,2,3-triazol-4-yl) pyrrolo[1,2-b]pyridazine-3-carboxamide]	< 60	< 0.5		
Cn1c(=O)n(C2CCC(=O)NC2=O)c2cccc(N3CCC(CN4CCC(n5cc(-n6cc(-c7ccc8cc(C(N)=O)cnn78)nn6)c(C(F)F)n5)CC4)CC3)c21 (stereo not drawn) [Example 74, 7-(1-(3-(difluoromethyl)-1-(1-((1-(1-(2,6-dioxopiperidin-3-yl)-3-methyl-2-oxo-2,3-dihydro-1H-benzo[d]imidazol-4-yl)piperidin-4-yl)methyl)piperidin-4-yl)-1H-pyrazol-4-yl)-1H-1,2,3-triazol-4-yl)pyrrolo[1,2-b]pyridazine-3-carboxamide]			70 to 80	< 0.5
NC(=O)c1cnn2c(-c3cn(-c4cn(C5CCN(CC6CN(c7ccc8c(c7)C(=O)N(C7CCC(=O)NC7=O)C8=O)C6)CC5)nc4C(F)F)nn3)ccc2c1 (stereo not drawn) [Example 75]	> 80	0.5 to 1		
NC(=O)c1cnn2c(-c3cn(-c4cn([C@H]5CC[C@H](CN6CC7(CC(CCNc8cccc9c8C(=O)N(C8CCC(=O)NC8=O)C9=O)C7)C6)CC5)nc4C(F)F)nn3)ccc2c1 (stereo partly drawn) [Example 76, 7-(1-(3-(difluoromethyl)-1-((1r,4r)-4-((6-(2-((2-(2,6-dioxopiperidin-3-yl)-1,3-dioxoisoindolin-4-yl)amino)ethyl)-2-azaspiro[3.3]hept-2-yl)methyl)cyclohexyl)-1H-pyrazol-4-yl)-1H-1,2,3-triazol-4-yl)pyrrolo[1,2-b]pyridazine-3-carboxamide]	< 60	< 0.5		
NC(=O)c1cnn2c(-c3cn(-c4cn(C5CCN(CC6CCC7(CC6)CCN(C(=O)c6ccc(Cl)c(N8CCC(=O)NC8=O)c6)CC7)CC5)nc4C(F)F)nn3)ccc2c1 [Example 77]	70 to 80	0.5 to 1		
O=C1CCC(N2C(=O)c3ccc(N4CC(CN5CCC(n6cc(-n7cc(-c8cnn9ccc(N%10CCOCC%10)nc89)nn7)c(C(F)F)n6)CC5)C4)cc3C2=O)C(=O)N1 (stereo not drawn) [Example 78]	70 to 80	1 to 5		
Cn1c(=O)n(C2CCC(=O)NC2=O)c2cccc(C#CC3CCN(C[C@H]4CC[C@H](n5cc(-n6cc(-c7ccc8cc(C(N)=O)cnn78)nn6)c(C(F)F)n5)CC4)CC3)c21 (stereo partly drawn) [Example 79]	70 to 80	0.5 to 1		
Cn1c(=O)n(C2CCC(=O)NC2=O)c2cccc(N3CCC4(CCN(C[C@H]5CC[C@H](n6cc(-n7cc(-c8ccc9cc(C(N)=O)cnn89)nn7)c(C(F)F)n6)CC5)C4)C3)c21 (stereo partly drawn) [Example 80, 7-(1-(3-(difluoromethyl)-1-((1r,4r)-4-(7-(1-(2,6-dioxy-3-yl)-3-methyl-2-oxo-2,3-dihydro-1H-benzo[d]imidazol-4-yl)-2,7-diazaspiro[4.4]non-2-yl)methyl)-1H-pyrazol-4-yl)-1H-1,2,3-triazol-4-yl)pyrrolo[1,2-b]pyridazine-3-carboxamide]	> 80	< 0.5		
